Our source for the IC50 values is ChEMBL document CHEMBL1139107, “Design, synthesis, and biological evaluation of novel analogues of archazolid: a highly potent simplified V-ATPase inhibitor” (Bioorg Med Chem Lett, 2007).

Assay [1] has as its system L929. As to the kind of experiment: Growth inhibition of mouse L929 cells by MTT assay. In kind it is functional, cell-based. (Tetrazolium assays rely on reduction of a dye to a coloured formazan, in cell work by metabolically active cells.)
The nature of assay [2]: Inhibition of tobacco hornworm midgut vacuolar ATPase V1/V0 holoenzyme. Also on record: species or system Manduca sexta.

pIC50: −log10 of the molar value. Where only a bound is given, the exact number is not on record here.

On to `CNC(=O)O[C@@H](CC(C)C)c1nc([C@H]2OC(=O)/C=C/C/C(C)=C/[C@@H](O)[C@@H](C)\C=C(C)/C=C(C)\C=C\[C@@H](O)[C@H](C)[C@H](OC)/C(C)=C/C=C/[C@@H]2C)cs1` [ARCHAZOLID B], for which the pIC50 (in general, the negative decadic logarithm of the IC50, by convention in mol/L) in assay [1] was 8.96.
`CNC(=O)O[C@@H](CC(C)C)c1nc([C@H]2OC(=O)/C(C)=C/C/C(C)=C/[C@@H](O)[C@@H](C)\C=C(C)/C=C(C)\C=C\[C@@H](O)[C@H](C)[C@H](OC)/C(C)=C/C=C/[C@@H]2C)cs1` [ARCHAZOLID A] registered an IC50 in assay [2] of 0.6 nmol. This compound also had a pIC50 in assay [1] of 9.09.
In assay [1], `CO[C@@H]1/C(C)=C/C=C/[C@H](C)[C@@H](c2csc([C@@H](O)CC(C)C)n2)OC(=O)/C(C)=C/C/C(C)=C/[C@@H](O)[C@@H](C)\C=C(C)/C=C(C)\C=C\[C@@H](O)[C@@H]1C` showed a pIC50 of 7.85.
Same read-out and setting: the value for `CNC(=O)O[C@@H](CC(C)C)c1nc([C@H]2OC(=O)/C(C)=C/C/C(C)=C/[C@@H](O)[C@@H](C)\C=C(C)/C=C(C)\C=C\C(=O)[C@H](C)[C@H](OC)/C(C)=C/C=C/[C@@H]2C)cs1` [DEHYDROARCHAZOLID] was less than 5.30; that for `CNC(=O)O[C@@H](CC(C)C)c1nc([C@H]2OC(=O)/C(C)=C/C/C(C)=C/[C@@H](OC(=O)c3ccc([N+](=O)[O-])cc3)[C@@H](C)\C=C(C)/C=C(C)\C=C\[C@@H](O)[C@H](C)[C@H](OC)/C(C)=C/C=C/[C@@H]2C)cs1` was 6.54; that for `CNC(=O)O[C@@H](CC(C)C)c1nc([C@H]2OC(=O)/C(C)=C/C/C(C)=C/[C@@H](O[Si](C)(C)C(C)(C)C)[C@@H](C)\C=C(C)/C=C(C)\C=C\[C@@H](O)[C@H](C)[C@H](OC)/C(C)=C/C=C/[C@@H]2C)cs1` was 6.03.
